This is an account of results in US20230416307A1, “[…] PEPTIDES FOR ENHANCING VIRAL PRODUCTION” (Synvivia, Inc., priority 2022, published 2023).

Ends that are not written are not given here.

Common to all, as to type: cell-based, adeno-associated virus
Assay [1] concerns AAV2-GFP. Description: Transduction efficiency (TU:VG ratio) of AAV2-GFP packaged in cells expressing a CP. The note with it: for transduction efficiency of AAV2-GFP produced in the presence of CP: FIG. 23, CP plasmid 0.3 ng to 100 ng, versus control without CP. An excerpt: AAV2-GFP were harvested and assayed for biological and physical titer as described in FIG. 20
FIG. 24. […] This figure depicts the raw flow cytometry data used to determine the biological titer of AAV samples. This is an example of the data that was used to determine the biological titers in FIG. 23. The X-axis of each graph represents the forward light scattering (FSC) from flow cytometry. The Y-axis represents the GFP intensity of each cell. A 1000-fold dilution of AAV2-GFP particles produced either in the presence (A) or absence (B) of cyclic peptide were used to transduce HEK293 cells. A 1000-fold dilution of the preparation was used (e.g., without physical titer normalization) to ensure a direct, batch-to-batch comparison of the impact of cyclic peptide on viral packaging performance.
As used herein, the term “transduction efficiency” refers to the effectiveness (efficiency) of viral particles in delivering their genetic payload to the target cells. This efficiency may be represented by the transducing units to vector genomes ratio (TU:VG). Viral formulations with enhanced transduction efficiency can achieve greater numbers of DNA delivery events for the same number of DNA-containing viral particles. […] Enhanced transduction efficiency may be achieved by optimizing the cellular environment for viral production, leading to viral particles with improved capsid structure, viral particle biochemistry, or viral particle assembly. Increasing transduction efficiency refers to improvements in the TU:VG ratio, which encompasses both infectivity and biological titer.
• 1. A 100-mm cell culture dish was reseeded with 4.0×10^6 Hek293T cells in high glucose DMEM culture medium supplemented with 10% FBS. • 2. […] A jetOPTIMUS DNA transfection reagent i used during the transfection protocol (from Polyplus). • 3. 12-16 hours after transfection, media was replaced with low glucose DMEM culture medium supplemented with 1% FBS, 1×Glutamax, 10 mM HEPES, and 0.075% sodium bicarbonate. • 4. Cells and media were harvested 4 days after transfection and frozen in 1 mL aliquots. • 5. Frozen aliquots were thawed and lysed using AAVMax Lysis Reagent (Life Technologies, USA, A50520). 100 uL of AAVMax Lysis buffer was added to 900 uL of cell and media. Mixture was incubated for 2 hours with rotating. Debris was pelleted at 5,000xg for 15 minutes. AAV containing supernatant was collected. • 6. The physical and biological titers of the harvested AAV samples were determined by qPCR and biological viral titer measurement as described in Example 1.
Full, but non-functional viral particles represent a major manufacturing challenge for AAV gene therapies. At present, there is no process capable of purifying the functional viral particles from the full, but non-functional fraction.

Assay [2] has as its system AAV2. Description: Physical titer (qPCR or ddPCR, VG/ml) of AAVs packaged in cells expressing a CP. The note with it: FIG. 20A; GFP payload; cells expressing individual CP relative to no CP expression. As for the experimental part:
(§1) FIG. 20. Exemplary bar charts showing fold improvement of physical titer and/or biological titer for various CPs. […] The payload being packaged during AAV production is GFP only. The cyclic peptide generator is located on a separate DNA, is only expressed by the host cell, and is not able to be packaged. Physical titer is quantified by qPCR or ddPCR and expressed as viral genomes produced per mL (VG/ml) of AAV packaging cells and media. […] Biological titer is measured in vitro by transducing a standardized number of wild-type (WT) mammalian (HEK293) cells with diluted AAVs harvested after packaging with or without CP expression. The transductants are identified by GFP payload expression. The fold improvement is calculated by dividing the percentage of GFP expressing (transduced) cells after transduction with AAVs packaged in cells expressing a CP by the percentage of GFP expressing (transduced) cells after transduction with AAVs packaged in cells that are not expressing a CP.
Primers binding the eGFP reporter protein were used to measure the virus titer with quantitative polymerase chain reaction (qPCR). Before releasing the viral DNA from the particles, all extra-viral DNA was removed by digestion with DNase I. Then, the viral DNA was released by alkaline lysis. The qPCR was performed using the PowerUp™ SYBR™ Green Master Mix (Applied Biosystems), and primers against the zsGreen obtained from Integrated DNA Technologies. The extracted viral DNA and a serial dilution of a viral plasmid containing z as a standard were measured using the CFX96 Touch Real-Time PCR Detection System and the CFX Maestro Software (Bio-Rad, Hercules, CA).
(§2) 50-70% confluent HEK-293T cells (˜10^6 total cells) grown in DMEM supplemented with 5% FBS were quadruple transfected with pHelper Vector, pAAV-ZsGreenl Vector, AAVpro® Packaging Rep-Cap Plasmid (AAV2), and pTargeT Mammalian Expression Vector with cloned individual cyclic peptide generator of interest in a 1:1:1:1 molar ratio normalized to the plasmid size using JetOptimus Transfection Reagent in 100 mm TC treated petri dish. AAV preparation is conducted as described above. Biological viral titer measurement is performed as described above.
(§3) • 1. A 100-mm cell culture dish was reseeded with 4.0×10^6 Hek293T cells in high glucose DMEM culture medium supplemented with 10% FBS. • 2. One day after plating, the cells (70-80% confluence) were co-transfected with 3.2ug pRC2 which encodes Rep and Cap genes (SEQ ID NO: 1-7), 4.6ug pHelper which encodes Adenovirus helper genes (SEQ ID NO: 16-19, 22, 23), 2.2ug payload vector, and 1-100ng engineered cyclic peptide expression vector (if using). A jetOPTIMUS DNA transfection reagent i used during the transfection protocol (from Polyplus). • 3. 12-16 hours after transfection, media was replaced with low glucose DMEM culture medium supplemented with 1% FBS, 1×Glutamax, 10 mM HEPES, and 0.075% sodium bicarbonate. • 4. Cells and media were harvested 4 days after transfection and frozen in 1 mL aliquots. • 5. Frozen aliquots were thawed and lysed using AAVMax Lysis Reagent (Life Technologies, USA, A50520). 100 uL of AAVMax Lysis buffer was added to 900 uL of cell and media. Mixture was incubated for 2 hours with rotating. Debris was pelleted at 5,000xg for 15 minutes. AAV containing supernatant was collected. • 6. The physical and biological titers of the harvested AAV samples were determined by qPCR and biological viral titer measurement as described in Example 1.
The physical titer fold improvement was calculated by dividing the physical titer of AAVs packaged in cells expressing a CP by the physical titer of cells that are not expressing a CP.

For assay [3], the system named is AAV2. As to the kind of experiment: Biological titer of AAVs packaged in cells expressing a CP (GFP-positive transduced HEK293 cells). The note with it: FIG. 20B; HEK293 transduction; cells expressing individual CP relative to no CP expression. On the procedure:
as §1
HEK-293T were reseeded in a 24 well tissue culture treated plate at a density of 1-2*10^4 cells/well in 0.5 mL of DMEM with 10% FBS. Cells were cultured overnight. 10-fold serial dilutions of prepared AAV2 particle solutions using DMEM with 10% FBS were used to infect the HEK-293T cells. Dilutions ranged from 1:10 to 1:10000. On Day 3 after infection, cells were detached using Trypsin/EDTA and analyzed for eGFP expression by image-based cytometry.
as §2, §3
The fold improvement in biological titer was calculated by dividing the percentage of GFP expressing (transduced) cells after transduction with AAVs packaged in cells expressing a CP by the percentage of GFP expressing (transduced) cells after transduction with AAVs packaged in cells that are not expressing a CP.

As to “CCRPH: engineered cyclic peptide, printed as SEQ ID NO: 37”, the “transduction efficiency of AAV2-GFP produced in the presence of CP” value (shortened to “transduction efficiency … of CP”) in assay [1] was “improvements in transduction efficiency”.

On to “CQVFQL: engineered cyclic peptide, SEQ ID NO: 42 (also: cyclic, closure not given here)”, for which, in assay [1], the “transduction efficiency … of CP” value is on record as “improvements in transduction efficiency”.

Take “CQVTRM: engineered cyclic peptide, SEQ ID NO: 55 (cyclic; Cyclic peptide that was found to enhance AAV viral titer; We observed log10 enrichment score of 3.258, mean of 74 experimental replicates. We observed excellent mean log10 enrichment scores for this cyclic peptide across multiple AAV serotypes: AAV1_3.4; AAV2_3.3; AAV5_3.2; AAV6_3.1. Cyclo-CQVTRM possesses the following motifs: POL_HYD_POL-motif; POL_POL_HYD-motif; POS_HYD_POL-motif.)”: in assay [2], the “fold improvement in physical titer of AAVs” value was “fold improvements in physical titer”. The “fold improvement in biological titer of AAVs” value in assay [3] was “fold improvements in biological titer”.

With “CRVSY: engineered cyclic peptide, SEQ ID NO: 41 (also: cyclic, closure not given here)”, the “transduction efficiency … of CP” value in assay [1] is on record as “improvements in transduction efficiency”.

For “CSDPSA: engineered cyclic peptide, SEQ ID NO: 56 (cyclic; Cyclic peptide that was found to enhance AAV viral titer; We observed log10 enrichment score of 3.653, mean of 76 experimental replicates. We observed excellent mean log10 enrichment scores for this cyclic peptide across multiple AAV serotypes: AAV1_3.5; AAV2_4.0; AAV5_3.0; AAV6_3.4. Cyclo-CSDPSA possesses the following motifs: POL_HYD_POL-motif; NEG_HYD_POL-motif; POL_NEG_HYD-motif; POL_POL_NEG-m)”, in assay [2], the “fold improvement in physical titer of AAVs” value is “fold improvements in physical titer”. The “fold improvement in biological titer of AAVs” value in assay [3] is given as “fold improvements in biological titer”.

“CSESCP: engineered cyclic peptide, SEQ ID NO: 57 (cyclic; Cyclic peptide that was found to enhance AAV viral titer)”: in assay [2], the “fold improvement in physical titer of AAVs” value is given as “fold improvements in physical titer”. Moreover, the “fold improvement in biological titer of AAVs” value in assay [3] was “fold improvements in biological titer”.

Turning to “CTHKVS: engineered cyclic peptide, SEQ ID NO: 38 (also: cyclic, closure not given here)”, the “transduction efficiency … of CP” value in assay [1] is recorded as “improvements in transduction efficiency”.

For the substance “CYNHAR: engineered cyclic peptide, SEQ ID NO: 35, corresponds to generator plasmid T2851-8 (cyclic; Cyclic peptide that was found to increase or decrease AAV viral titer in a dose-responsive manner.)”, the “increased transduction efficiency (TU:VG ratio)” value in assay [1] (FIG. 21 legend, data not shown) was roughly 2.4 ×.

Turning to “CYPLH: engineered cyclic peptide, SEQ ID NO: 60 (cyclic; Cyclic peptide that was found to enhance AAV viral titer)”, the “fold improvement in physical titer of AAVs” value in assay [2] is on record as “fold improvements in physical titer”. The “fold improvement in biological titer of AAVs” value in assay [3] was “fold improvements in biological titer”.

In the case of “CYVTTD: engineered cyclic peptide, SEQ ID NO: 62 (cyclic; Cyclic peptide that was found to enhance AAV viral titer; We observed log10 enrichment score of 3.986, mean of 70 experimental replicates. We observed excellent mean log10 enrichment scores for this cyclic peptide across multiple AAV serotypes: AAV1_4.2; AAV2_4.1; AAV5_3.6; AAV6_3.9. Cyclo-CYVTTD possesses the following motifs: ARO_HYD_POL-motif; POL_POL_NEG-motif; NEG_POL_ARO-motif.)”, the “fold improvement in physical titer of AAVs” value in assay [2] was “fold improvements in physical titer”. Also, the “fold improvement in biological titer of AAVs” value in assay [3] is on record as “fold improvements in biological titer”.
